Where a name gives a salt, the structure may show the parent alone.
How the values were obtained:
IL-1β = test: Tissue level of IL-1β in the myocardium after reperfusion (ELISA); assay type: ex vivo (isolated Langendorff-perfused heart after in vivo dosing), Sprague-Dawley rats; conditions: 10 mg/kg intraperitoneally; after 60 min reperfusion; mean±SEM; C group 3700±700, not statistically significantly different
Experimental: (§1) Sixteen Sprague-Dawley rats (300 g, male) were divided into a control group (“C group,” n=8) and a group administered (−)-ethyl N-{3,5-dichloro-2-hydroxy-4-[2-(4-methylpiperazin-1-yl)ethoxy]benzoyl}-L-phenylalaninate dihydrochloride (“J group,” n=8). All rats were anesthesized by intraperitoneal injection of sodium pentobarbital (50 mg/kg), and either (a) 0.5 mL of saline (C group) or (b) 10 mg/kg of (−)-ethyl N-{3,5-dichloro-2-hydroxy-4-[2-(4-methylpiperazin-1-yl)ethoxy]benzoyl}-L-phenylalaninate dihydrochloride dissolved in 5% mannitol (J group) was administered intraperitoneally to the rats. Anticoagulation was ensured by the intraperitoneal administration of 200 USP units of heparin. […]
(§2) After stabilization, heart rate (HR), left ventricular developed pressure (LVDP), maximum dP/dt (maximum dP/dt), and coronary flow (CF) were measured with LV diastolic pressure stabilized at 10 mm Hg. […] HR, LVDP, maximum dP/dt, and CF were continuously measured after reperfusion and analyzed using a Polygraph System (Nihon Kouden, Japan).
(§3) After 60 minutes of reperfusion, frozen sections of the hearts were made and stored at −80° C. for further assessment. […] The concentrations of tissue inflammatory cytokines were measured using ELISA kits (TNF-α, IL-1β, and IL-6: Biosource International, California; and IL-8: Immuno-Biological Laboratories, Gunma, Japan) according to the manufacturer's recommendation. […]

TNF-α = test: Tissue level of TNF-α in the myocardium after reperfusion (ELISA); parameters: species or system Sprague-Dawley rats; conditions: 10 mg/kg intraperitoneally; after 60 min reperfusion; mean±SEM; C group 550±80, p<0.05
Experimental: as §1, §2, §3

[1] = test system: hearts of Sprague-Dawley rats (myocardial ischemia reperfusion injury); test: Cardiac function of isolated Langendorff-perfused rat hearts after 30 min global ischemia and 60 min reperfusion; assay type: ex vivo
Experimental: Sixteen Sprague-Dawley rats (300 g, male) were divided into a control group (“C group,” n=8) and a group administered (−)-ethyl N-{3,5-dichloro-2-hydroxy-4-[2-(4-methylpiperazin-1-yl)ethoxy]benzoyl}-L-phenylalaninate dihydrochloride (“J group,” n=8). All rats were anesthesized by intraperitoneal injection of sodium pentobarbital (50 mg/kg), and either (a) 0.5 mL of saline (C group) or (b) 10 mg/kg of (−)-ethyl N-{3,5-dichloro-2-hydroxy-4-[2-(4-methylpiperazin-1-yl)ethoxy]benzoyl}-L-phenylalaninate dihydrochloride dissolved in 5% mannitol (J group) was administered intraperitoneally to the rats. Anticoagulation was ensured by the intraperitoneal administration of 200 USP units of heparin.
Ten minutes after the administration of heparin and either (a) saline (C group) or (b) 10 mg/kg of (−)-ethyl N-{3,5-dichloro-2-hydroxy-4-[2-(4-methylpiperazin-1-yl)ethoxy]benzoyl}-L-phenylalaninate dihydrochloride dissolved in 5% mannitol (J group), the hearts of the rats were excised and perfused with modified Krebs-Henseleit buffer (120.0 mM NaCl, 4.5 mM KCl, 20.0 mM NaHCO3, 1.2 mM KH2PO4, 1.2 MgCl2, 2.5 mM CaCl2, and 10.0 mM glucose: gassed with 95% O2+5% CO2 to obtain a pH of 7.4 at 37° C.) at the pressure equal to 1 m H2O by means of a Langendorff apparatus. A thin-wall latex balloon was inserted into the left ventricle through the left atrium to monitor left ventricular pressure and to control left ventricular volume.
After stabilization, heart rate (HR), left ventricular developed pressure (LVDP), maximum dP/dt (maximum dP/dt), and coronary flow (CF) were measured with LV diastolic pressure stabilized at 10 mm Hg. The hearts were subjected to global ischemia at 37° C. for 30 minutes, followed by 60 minutes of reperfusion. The balloon was deflated during ischemia, and the hearts were not paced during reperfusion. HR, LVDP, maximum dP/dt, and CF were continuously measured after reperfusion and analyzed using a Polygraph System (Nihon Kouden, Japan).
There were significant differences between the two groups, however, following global ischemia and reperfusion. FIGS. 1 and 2 depict the cardiac function (as measured by LVDP and maximum dP/dt) after ischemia reperfusion between the C and J groups. For the following parameters, data are expressed as mean±standard error of the mean (SEM). The difference in the data on functional recoveries were determined with one-way repeated measure ANOVA. The difference in the data on CPK leakage and tissue cytokine concentrations were determined with unpaired Student's t test. A p value of less than 0.05 was considered statistically significant.

IL-6 = test: Tissue level of IL-6 in the myocardium after reperfusion (ELISA); assay type: ex vivo (isolated Langendorff-perfused heart, dosed in vivo), Sprague-Dawley rats; conditions: 10 mg/kg intraperitoneally; after 60 min reperfusion; mean±SEM; C group 300±80, p<0.05
Experimental: as §1, §2, §3

[2] = test system: cardiac myocytes (CPK leakage); test: Creatine phosphokinase (CPK) leakage into the coronary effluent after reperfusion; assay type: ex vivo (isolated perfused hearts from dosed rats), Sprague-Dawley rats; conditions: 10 mg/kg intraperitoneally; coronary effluent for 60 minutes after reperfusion; mean±SEM; C group 140±61, p<0.05
Experimental: as §1
After stabilization, heart rate (HR), left ventricular developed pressure (LVDP), maximum dP/dt (maximum dP/dt), and coronary flow (CF) were measured with LV diastolic pressure stabilized at 10 mm Hg. […] HR, LVDP, maximum dP/dt, and CF were continuously measured after reperfusion and analyzed using a Polygraph System (Nihon Kouden, Japan). […]
There were significant differences between the two groups, however, following global ischemia and reperfusion. FIGS. 1 and 2 depict the cardiac function (as measured by LVDP and maximum dP/dt) after ischemia reperfusion between the C and J groups. For the following parameters, data are expressed as mean±standard error of the mean (SEM). […]

IL-8 = test: Tissue level of IL-8 in the myocardium after reperfusion (ELISA); assay type: ex vivo (isolated Langendorff-perfused heart), Sprague-Dawley rats; conditions: 10 mg/kg intraperitoneally; after 60 min reperfusion; mean±SEM; C group 240±40, p<0.05
Experimental: as §1, §2, §3

SMILES: CCOC(=O)[C@H](Cc1ccccc1)NC(=O)c1cc(Cl)c(OCCN2CCN(C)CC2)c(Cl)c1O [(−)-ethyl N-{3,5-dichloro-2-hydroxy-4-[2-(4-methylpiperazin-1-yl)ethoxy]benzoyl}-L-phenylalaninate dihydrochloride]
- tissue level of IL-1β in the myocardium after reperfusion (IL-1β): 2600±200 pg/mg tissue
- tissue level of TNF-α in the myocardium after reperfusion (TNF-α): 240±30 pg/mg tissue
- peak value of percent recovery of LVDP after reperfusion ([1]; 10 mg/kg intraperitoneally 10 min before heart excision, 30 min global ischemia at 37° C., 60 min reperfusion, percentage of basal LVDP, mean±SEM, C group 39±6%, p<0.05): 79±5%
- peak value of percent recovery of maximum dP/dt after reperfusion ([1]; 10 mg/kg intraperitoneally 10 min before heart excision, 30 min global ischemia, 60 min reperfusion, percentage of basal maximum dP/dt, mean±SEM, C group 54±7%, p<0.05): 80±4%
- percent recovery of LVDP versus C group over time ([1]; 10 mg/kg intraperitoneally, at 20, 30, 40, 50, and 60 minutes after reperfusion): Significant improvements
- percent recovery of max dP/dt versus C group over time ([1]; 10 mg/kg intraperitoneally, at 30, 40, 50, and 60 minutes after reperfusion): significant improvement
- tissue level of IL-6 in the myocardium after reperfusion (IL-6): 60±7 pg/mg tissue
- CPK leakage of the coronary effluent [2]: 2.9±2.0 IU/60 minutes
- tissue level of IL-8 in the myocardium after reperfusion (IL-8): 68±19 pg/mg tissue

From patent US20050187221A1, “Method of treating ischemia reperfusion injury” (Japan Tobacco Inc., priority 2003, published 2005)
